Data published in ChEMBL document CHEMBL4811220, “Investigation of the in vitro and in vivo efficacy of peptoid-based HDAC inhibitors with dual-stage antiplasmodial activity” (Eur J Med Chem, 2021).
Activity calls are given as the source filed them. The rule behind the calls is not given here.

Experiments:
Plasmodium berghei [1] = assay: (§1) Antimalarial activity against Plasmodium berghei QIMR infected in BALB/c mouse assessed as reduction in peripheral blood parasitemia at 10 mg/kg, po qd for 4 days starting from 2 hrs post-infection and measured on 4 to 6 days post-infection by Giemsa staining based microscopic analysis relative to control; details: read-out: INH
[2] = Intrinsic clearance in human liver microsomes measured upto 40 mins by LC-MS/MS analysis; format: ADME, Microsome; details: read-out: CLH
[3] = Half life in human liver microsomes measured upto 40 mins by LC-MS/MS analysis; format: ADME, Microsome
Plasmodium falciparum [4] = assay: Resistance index, ratio of IC50 for antiplasmodial activity against multidrug-resistant asexual intraerythrocytic stage of Plasmodium falciparum Dd2 to IC50 for antiplasmodial activity against drug-sensitive asexual intraerythrocytic stage of Plasmodium falciparum 3D7 infected in human O+ erythrocytes by [3H]-hypoxanthine incorporation assay; format: functional
Plasmodium falciparum [5] = assay: microbe, parasite or virus in culture; format: functional, organism-based; details: 3D7, Erythrocyte
HepG2 = assay: Cytotoxicity against human HepG2-A16-CD81EGFP cells assessed as inhibition of cell growth incubated for 24 hrs followed by medium transfer and incubation in multimode plate for 48 hrs by CellTiterGlo reagent based luminescence assay
[6] = Selectivity index, ratio of IC50 for cytotoxicity against human HepG2-A16-CD81EGFP cells to IC50 for antiplasmodial activity against drug-sensitive asexual intraerythrocytic stage of Plasmodium falciparum 3D7 infected in human O+ erythrocytes
Plasmodium falciparum [7] = assay: Antiplasmodial activity against multidrug-resistant asexual intraerythrocytic stage of Plasmodium falciparum Dd2 assessed as inhibition of parasite growth incubated for 48 hrs followed by addition of [3H]hypoxanthine for 24 hrs by [3H]hypoxanthine incorporation assay; format: functional, organism-based
Plasmodium berghei [8] = assay: microbe, parasite or virus in culture; format: functional, organism-based
[9] = Selective index, ratio of IC50 for human HepG2-A16-CD81EGFP cells to IC50 for antiplasmodial activity against liver stage exo-erythrocytic forms of Plasmodium berghei sporozoites infected in human HepG2-A16-CD81EGFP cells
[10] = system: Plasmodium falciparum 3D7; assay: Inhibition of HDAC in trophozite-stage of Plasmodium falciparum 3D7 infected in erythrocytes assessed as hyperacetylation of histone H4 at lysine residue at 5 x IC50 incubated for 3 hrs by western blot analysis; format: cell-based
Histone deacetylase 1 = Histone deacetylase 1 (Homo sapiens, UniProt Q13547)
Description: Inhibition of C-terminal FLAG/His-tagged human recombinant HDAC1 (1 to 482 residues) expressed in baculovirus infected Sf9 cells using ZMAL (Z-Lys(Ac)-AMC) as fluorogenic substrate incubated for 90 mins by fluorescence based assay

[11] = molecular target: T1, Protein deacetylase HDAC6 (Homo sapiens, UniProt Q9UBN7); assay: biochemical
T1 sequence (Q9UBN7 whole entry): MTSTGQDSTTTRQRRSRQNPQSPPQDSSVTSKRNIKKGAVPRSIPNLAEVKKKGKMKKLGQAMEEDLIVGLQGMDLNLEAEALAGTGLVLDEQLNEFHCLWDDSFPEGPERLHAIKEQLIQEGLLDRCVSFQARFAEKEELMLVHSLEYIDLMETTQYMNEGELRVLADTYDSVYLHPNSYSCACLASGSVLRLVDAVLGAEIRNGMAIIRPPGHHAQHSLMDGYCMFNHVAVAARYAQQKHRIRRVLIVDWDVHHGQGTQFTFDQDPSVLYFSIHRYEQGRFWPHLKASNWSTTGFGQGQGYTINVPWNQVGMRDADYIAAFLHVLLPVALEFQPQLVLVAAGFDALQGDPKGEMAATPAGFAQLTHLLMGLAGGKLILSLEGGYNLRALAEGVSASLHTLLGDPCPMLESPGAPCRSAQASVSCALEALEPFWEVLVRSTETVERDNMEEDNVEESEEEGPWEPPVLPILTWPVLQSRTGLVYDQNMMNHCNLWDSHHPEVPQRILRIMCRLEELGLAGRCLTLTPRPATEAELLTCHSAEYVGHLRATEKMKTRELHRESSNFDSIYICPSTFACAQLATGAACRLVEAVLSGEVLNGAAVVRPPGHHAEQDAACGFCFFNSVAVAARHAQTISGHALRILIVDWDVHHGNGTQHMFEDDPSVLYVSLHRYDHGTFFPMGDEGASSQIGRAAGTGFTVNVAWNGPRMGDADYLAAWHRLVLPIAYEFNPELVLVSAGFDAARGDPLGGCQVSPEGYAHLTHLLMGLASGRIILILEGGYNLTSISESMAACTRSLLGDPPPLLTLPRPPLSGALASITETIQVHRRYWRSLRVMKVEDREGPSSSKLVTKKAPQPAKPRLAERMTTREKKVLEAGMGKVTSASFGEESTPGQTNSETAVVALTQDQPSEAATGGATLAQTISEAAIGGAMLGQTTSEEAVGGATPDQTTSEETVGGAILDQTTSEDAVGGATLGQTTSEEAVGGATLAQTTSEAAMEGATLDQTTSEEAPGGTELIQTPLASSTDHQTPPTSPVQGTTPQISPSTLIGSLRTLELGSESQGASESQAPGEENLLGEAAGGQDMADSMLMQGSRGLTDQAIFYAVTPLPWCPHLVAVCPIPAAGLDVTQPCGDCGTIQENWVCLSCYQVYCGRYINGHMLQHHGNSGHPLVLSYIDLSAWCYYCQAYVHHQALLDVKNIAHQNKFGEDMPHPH
Description: Inhibition of N-terminal GST-tagged full length human recombinant HDAC6 expressed in baculovirus infected Sf9 cells using ZMAL (Z-Lys(Ac)-AMC) fluorogenic substrate incubated for 90 mins by fluorescence based assay

[12] = Intrinsic clearance in mouse liver microsomes measured upto 40 mins by LC-MS/MS analysis
[13] = Half life in mouse liver microsomes measured upto 40 mins by LC-MS/MS analysis; details: liver microsomes
Plasmodium berghei [14] = assay: as §1, with “at 25” for “at 10”, “po bid” for “po qd”, “hrs post infection” for “hrs post-infection”; format: functional; details: time 4-6 day
[15] = Selectivity index, ratio of IC50 for cytotoxicity against human HepG2-A16-CD81EGFP cells to IC50 for antiplasmodial activity against multidrug-resistant asexual intraerythrocytic stage of Plasmodium falciparum Dd2; format: toxicity, cell-based; details: read-out: Ratio IC50

Chain of Histone deacetylase 1 (Q13547 whole entry): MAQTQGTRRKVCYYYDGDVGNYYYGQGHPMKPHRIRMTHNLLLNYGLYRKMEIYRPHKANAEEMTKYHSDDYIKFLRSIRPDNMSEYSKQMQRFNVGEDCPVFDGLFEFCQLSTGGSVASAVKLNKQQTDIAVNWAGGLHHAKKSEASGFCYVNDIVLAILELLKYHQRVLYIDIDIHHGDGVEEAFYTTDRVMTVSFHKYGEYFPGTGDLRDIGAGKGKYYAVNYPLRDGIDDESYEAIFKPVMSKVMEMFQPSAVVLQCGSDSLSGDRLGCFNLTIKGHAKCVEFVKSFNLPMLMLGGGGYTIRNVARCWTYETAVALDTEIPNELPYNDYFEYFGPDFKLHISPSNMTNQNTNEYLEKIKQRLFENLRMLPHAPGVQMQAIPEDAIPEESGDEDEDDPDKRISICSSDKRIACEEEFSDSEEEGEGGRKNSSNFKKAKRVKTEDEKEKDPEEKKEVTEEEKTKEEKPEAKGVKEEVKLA

Structure (SMILES) | inhibition in vivo at 10 mg/kg/day (Plasmodium berghei [1]) | microsomal CLint [2] | half-life [3] | Ratio IC50 (Plasmodium falciparum [4]) | IC50 (Plasmodium falciparum [5]) | IC50 (HepG2) | selectivity ratio [6] | IC50 (Plasmodium falciparum [7]) | IC50 (Plasmodium berghei [8]) | selectivity ratio [9] | inhibition [10] | IC50 (Histone deacetylase 1) | IC50 [11] | microsomal CLint at 40 min [12] | half-life at 40 min [13] | inhibition in vivo at 25 mg/kg (Plasmodium berghei [14]) | selectivity ratio [15]
CCN(CC)CCCC(C)Nc1ccnc2cc(Cl)ccc12 (stereo not given) [CHLOROQUINE] | 100% |  |  |  |  |  |  |  |  |  |  |  |  |  |  |  | 
O=C(O)Cc1ccccc1Nc1c(Cl)cccc1Cl [DICLOFENAC] |  | 248 µL/min/mg | 0.113 h |  |  |  |  |  |  |  |  |  |  |  |  |  | 
Cn1c(=O)c2c(ncn2C)n(C)c1=O [CAFFEINE] |  | 2 µL/min/mg | 17.2 h |  |  |  |  |  |  |  |  |  |  |  |  |  | 
CC(C)c1ccc(CC(=O)N(CC(=O)NCc2ccccc2)Cc2ccc(C(=O)NO)cc2)cc1 |  |  |  | 0.3 | 0.076 µM | 30 µM | 395 | 0.023 µM | 2.7 µM | 11 | Active | 0.78 µM | 0.02 µM |  |  |  | 
O=C(CCCCCCC(=O)Nc1ccccc1)NO [VORINOSTAT] |  |  |  |  |  | 7.6 µM |  |  |  |  |  |  |  |  |  |  | 
CNC(=O)CN(Cc1ccc(C(=O)NO)cc1)C(=O)c1ccc(C(C)C)cc1 |  | 5 µL/min/mg | 5.78 h | 0.1 | 0.016 µM | 9.16 µM | 573 | 0.002 µM | 0.48 µM | 19 | Active | 0.1 µM | 0.06 µM | 6 µL/min/mg | 4.52 h | 33.3% | 4580
O=C(CN(Cc1ccc(C(=O)NO)cc1)C(=O)Cc1ccccc1)NCc1ccccc1 |  |  |  |  | 0.213 µM | 21.9 µM | 103 |  | 0.92 µM | 24 |  | 0.6 µM | 0.03 µM |  |  |  | 
Cc1ccccc1C(=O)N(CC(=O)NC12CC3CC(CC(C3)C1)C2)Cc1ccc(C(=O)NO)cc1 |  |  |  |  | 0.127 µM | 13 µM | 102 |  | 0.54 µM | 24 |  | 0.1 µM | 0.03 µM |  |  |  | 
CN(C)c1ccc(C(=O)N(Cc2ccc(C(=O)NO)cc2)C(C)(C)C(=O)NCc2ccccc2)cc1 |  |  |  |  | 0.161 µM | > 50 µM | > 311 |  | 4.27 µM | > 12 |  | 0.44 µM | 0.07 µM |  |  |  | 
O=C(CN(Cc1ccc(C(=O)NO)cc1)C(=O)Cc1ccccc1)NC1CCCCC1 |  |  |  |  | 0.281 µM | > 50 µM | > 178 |  | 0.82 µM | > 61 |  | 2.43 µM | 0.05 µM |  |  |  | 
CC(C)c1ccc(C(=O)N(Cc2ccc(C(=O)NO)cc2)C(C)(C)C(=O)NC2CCCCC2)cc1 |  | 144 µL/min/mg | 0.195 h | 0.3 | 0.101 µM | > 50 µM | > 495 | 0.033 µM | 4.9 µM | > 10 | inactive | 0.97 µM | 0.27 µM | 30 µL/min/mg | 0.927 h | 0.5% | 
